Source: patent US10383338B2, “Compositions and methods for making and using hydrolytic enzymes for degrading polysaccharides made by foodborne pathogenic bacteria” (University of Wyoming, priority 2014, dated 2019)

What was measured:
MBP-GGDEFpssE = assay: Equilibrium dialysis assay of c-di-GMP binding by the PssE receptor; design: species or system L. monocytogenes
Source text: (§1) To test the prediction that the PssE protein acts as a c-di-GMP receptor, its GGDEF domain (“GGDEF” disclosed as SEQ ID NO: 3) containing the I-site as an MBP fusion (MBP-GGDEFpssE) (“GGDEF” disclosed as SEQ ID NO: 3) was overexpressed, and this protein was purified (FIG. 5A) and analyzed for its ability to bind c-di-GMP in vitro using equilibrium dialysis. […] This value falls within the range of physiologically relevant intracellular c-di-GMP concentrations measured in other bacteria that are believed to be in the submicromolar to low micromolar range. […] Therefore, PssE is a bonafide c-di-GMP receptor that is predicted to transfer the c-di-GMP signal to activate synthesis of the listerial Pss EPS.
For purification of MBP::PdeC and MBP::GGDEFpssE fusions (“GGDEF” disclosed as SEQ ID NO: 3), IPTG (final concentration, 0.2 mM) was added to exponentially (A600, 0.6-0.8) growing E. coli DH5α containing appropriate plasmids. After 2-h induction, cells were collected by centrifugation. […]
(§2) Equilibrium dialysis experiments were performed as previously described. […] The nucleotide concentrations were quantified by HPLC. Binding constants were calculated by the GraphPad Prism software, version 4.03 (GraphPad Software, San Diego, Calif.) using a nonlinear regression model.

[1] = target: T1, Listeria monocytogenes PssE (Lmo0531), GGDEF domain (residues 107-285) containing the I-site, as MBP fusion (MBP::GGDEFpssE) (Listeria monocytogenes, UniProt Q8Y9J6); assay: Equilibrium dialysis of c-di-GMP binding to the PssE receptor (MBP-GGDEFpssE)
T1 construct: equilibrium dialysis
T1 sequence (Q8Y9J6 entry or part of it): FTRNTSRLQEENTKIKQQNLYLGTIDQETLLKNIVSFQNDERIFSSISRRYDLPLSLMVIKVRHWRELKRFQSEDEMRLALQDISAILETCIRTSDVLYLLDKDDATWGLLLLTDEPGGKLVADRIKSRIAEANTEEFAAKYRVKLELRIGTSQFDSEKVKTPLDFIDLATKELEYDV
Source text: FIGS. 5A-5B: In vitro assay of c-di-GMP binding by the PssE receptor. […] The GGDEF domain of PssE (residues 107-285) (“GGDEF” disclosed as SEQ ID NO: 3) containing the putative I-site was fused downstream of MBP, MBP::GGDEFpssE (“GGDEF” disclosed as SEQ ID NO: 3), and used in c-di-GMP binding assays. […] Shown is the dependence of the ratio of bound cdi-GMP per protein in the dialysis chamber, where protein alone was loaded, versus concentration of free c-di-GMP at equilibrium.
as §1
For purification of MBP::PdeC and MBP::GGDEFpssE fusions (“GGDEF” disclosed as SEQ ID NO: 3), IPTG (final concentration, 0.2 mM) was added to exponentially (A600, 0.6-0.8) growing E. coli DH5α containing appropriate plasmids. After 2-h induction, cells were collected by centrifugation. Cell pellets were resuspended in a buffer containing 200 mM NaCl, 0.5 mM EDTA, 5 mM MgCl2, 20 mM Tris-HCl (pH 7.6), and 5% glycerol that also contained protease inhibitors. […]
as §2

L. monocytogenes = format: cell-based; conditions: hydrogen peroxide 200 mM, benzalkonium chloride 100 ppm; 10 min, room temperature
Procedure: Here, the role of L. monocytogenes EPS in providing tolerance to disinfection and desiccation was evaluated. […] To distinguish between the contribution of EPS versus EPS-independent c-di-GMP-responsive agents, included in the tests were the ΔpdeB/C/D ΔpssC mutant characterized by elevated intracellular c-di-GMP levels but defective in EPS production.
Cultures were grown in HTM with 3% glucose at 37° C. for 24 h, at which point small uniform clumps are formed by the ΔpdeB/C/D strain. Aliquots (250 μl; 10^8 cfu/ml) of these cultures were mixed with disinfectants at 1:1 vol ratios in small glass tubes that also contained 0.1 g of acid washed glass beads (Sigma Life Sciences). Following a 10-min exposure to disinfectants at room temperature, D/E neutralizing broth (500 μl; Difco) was added. Samples were vigorously vortexed (for 5 min) and clumps of the ΔpdeB/C/D strain were dispersed due to the action of the glass beads. Serial dilutions were plated on BHI agar and colonies were counted following a 48-h incubation at 37° C.

[2] = Solubility of listerial EPS preparations; format: physicochemical
Source text: Considering that chitin, a polymer of β-1,4-linked N-acetylglucosamine, is also insoluble, but chitosan, which is obtained from chitin by N-deacetylation, is soluble in dilute acid, ManNAc-Gal EPS may also be made soluble by N-deacetylation. […] To identify the sugars belonging to the anomeric signals, a series of 2-D NMR spectra was acquired. COSY and TOCSY spectra were used to assign the proton chemical shifts, and an HSQC spectrum was obtained to assign the carbon chemical shifts of the monosaccharide residues present in EPS-N. The residues and their linkage positions were identified from the proton and carbon chemical shifts. A NOESY spectrum was used to determine the monosaccharide sequence. The spectra clearly identified one of the anomeric peaks as belonging to a terminal α-galactopyranose (α-Galp) residue (Table 3).
N-deacetylation was performed to obtain soluble EPS material for NMR studies. The insoluble EPS sample was suspended in 300 μl of 50% NaOH and heated to 80° C. for 1 h. After cooling to room temperature, the sample was diluted with 1 ml of water and acidified with glacial acetic acid (final pH˜4-5). The sample was dialyzed against running deionized water for 36 h using a 3,500 Da regenerated cellulose membrane and lyophilized. This material was designated ‘EPS-N’. EPS-N was dissolved in 5 ml of 0.4 M HCl and heated at 110° C. for 2 h for partial hydrolysis. […]

ΔpdeB/C/D strain = assay: Cell aggregation assay with added recombinant protein (prevention of aggregation of the growing strain); format: cell-based, L. monocytogenes; conditions: added to inoculum, HTM/G, 30° C., 24 h
[3] = test system: washed aggregates of strain ΔpdeB/C/D; assay: Dispersal of preformed cell aggregates; format: cell-based, L. monocytogenes
[4] = Release of soluble carbohydrates from purified insoluble EPS (anthrone assay); format: biochemical, L. monocytogenes; conditions: 32 μg ml^−1 final concentration; ethanol precipitated EPS
Procedure: Next, purified insoluble ManNAc-Gal EPS was treated with PssZ and PssZ E72Q.
Total carbohydrates were determined using an anthrone assay. Dried EPS samples were transferred to 0.4 ml of water and mixed with an ethyl acetate solution containing anthrone reagent (2% w/v). Then, 1 ml of concentrated sulfuric acid was added to the mixture for color development. Samples were read at a wavelength of 620 nm, and glucose was used as a standard to estimate carbohydrate levels in the samples. Finally, dried EPS samples were sent to the Complex Carbohydrate Research Center (Athens, Ga., USA) for determination of monosaccharide composition, linkage, and NMR analysis.
The EPS hydrolytic activities of PssZ and PssZ E72Q were assessed by the ability of these proteins: (i) to prevent aggregation of the growing ΔpdeB/C/D strain in HTM/G medium, (ii) to disperse nongrowing ΔpdeB/C/D aggregates; and (iii) to release soluble carbohydrates from the purified insoluble EPS fibers. (i) Different concentrations (0.13 and 1.3 μg ml^−1) of the purified PssZ and PssZ E72Q proteins were added at the beginning of strain incubation. (ii) Aggregates were washed twice and resuspended in HTM salts-MOPS medium. Proteins were added to 1 ml of aggregate suspension (32 μg ml^−1, final concentration), and samples were incubated at 30° C. with gentle shaking. […]

[5] = Stability of PssZ hydrolytic activity on incubation; format: physicochemical; conditions: 3 day incubation at 30° C.
Source text: In addition to biosynthesis proteins, the ManNAc-Gal EPS-specific glycosylhydrolase was identified and characterized. PssZ belongs to the GH8 family, whose members cleave β1-4 linkages through an inverting mechanism wherein carboxylate containing amino acid residues (i.e., Glu and Asp) perform the hydrolysis of glycosidic bonds. A conserved Glu residue present in the presumed catalytic site of PssZ was identified to be important for hydrolytic activity of PssZ (FIG. 17). The PssZ E72Q mutation largely, but not completely, abolished hydrolytic activity. […] A similar observation was reported for BcsZ, i.e., no hydrolytic activity was detected on carboxymethylcellulose in solution, whereas activity was shown on an agar plate containing carboxymethylcellulose. […] Given its relative stability, PssZ can be used for dispersing listerial EPS aggregates in food storage or processing plants, which would make listeria more susceptible to disinfectants. According to the results observed, listerial EPS-embedded aggregates are several orders of magnitude more tolerant to commonly used disinfectants than planktonic cells.

Molecule: Nc1nc2c(ncn2[C@@H]2O[C@@H]3COP(=O)(O)O[C@H]4[C@@H](O)[C@H](n5cnc6c(=O)[nH]c(N)nc65)O[C@@H]4COP(=O)(O)O[C@H]3[C@H]2O)c(=O)[nH]1 [c-di-GMP, Cyclic dimeric GMP]
- Kd (MBP-GGDEFpssE; 25 h, room temperature, protein 20 μM, c-di-GMP 1 to 50 μM, read-out: apparent Kd): 790 ± 170 nM
- binding capacity, Bmax (MBP-GGDEFpssE; nonlinear regression): 2.03±0.12 μM c-di-GMP (μM protein)^−1
- Kd [1]: 790 ± 170 nM
- Bmax (binding capacity) ([1]; equilibrium dialysis, 25 h at room temperature): 2.03±0.12 μM c-di-GMP (μM protein)^−1
- c-di-GMP molecules bound per PssE molecule at saturation ([1]; from Bmax): two

Molecule: OO [hydrogen peroxide]
- tolerance of ΔpdeB/C/D mutant compared to wild type or ΔpdeB/C/D ΔpssC mutant (L. monocytogenes): approximately 10^2 fold

Molecule: benzalkonium chloride
- tolerance of ΔpdeB/C/D mutant compared to wild type or ΔpdeB/C/D ΔpssC mutant (L. monocytogenes): approximately 10^2 fold

Molecule: {4)-β-ManpNAc-(1-4)-[α-Galp-(1-6)]-β-ManpNAc-(1-} [ManNAc-Gal EPS]
- solubility of native material [2]: completely insoluble

B1: PssZ: L. monocytogenes ManNAc-Gal EPS-specific glycosylhydrolase; SEQ ID NO: 1, purified fragment SEQ ID NO: 2 (protein)
chain: RPESKKTVSAPKETTPTSTSVQTYVKENYTAKNGLIMDYKNTEEPHYLAESIGLYMEYLVEVNDSKTFQKQVNHLEKYFIAEDNFIKWEATDSTTTNAIVDDFRITEALYQASEKFSFPSYKKMADKFLTNTKKYSAEQGVPVDFYDFVHKKKADTLHLSYLNIQAMQQINYRDKAYLPIQTINADPFFTEVFQNGQFKFADQKEVNMIDQMLIAIAYYDENGDIEPNFDNFLQTELASKGKIYARYQRETKKPSSENESTAVYAFLTQYFNKTNQAKNGKITKELLEKMDTSNPETTHFFDYINKEITLKK
modifications: His6 tag; Listeria monocytogenes
- inhibition of cell aggregation (ΔpdeB/C/D strain; 0.13 μg ml^−1 final concentration): inhibited aggregation partially
- inhibition of cell aggregation (ΔpdeB/C/D strain; 1.3 μg ml^−1 final concentration): inhibited it completely
- dispersal of preformed cell aggregates ([3]; 32 μg ml^−1 final concentration, 6 h, 30° C., HTM salts without carbon source): dispersed cell aggregates almost completely
- presence of reducing sugars in supernatants after treatment of cell aggregates ([3]; supernatants after treatment of cell aggregates): able to be detected
- hydrolytic activity on purified insoluble EPS (anthrone assay) [4]: did not detect any PssZ activity
- hydrolytic activity retained after incubation [5]: retains partial hydrolytic activity
